The results in this text go back to US12404241B2 (Celgene Corporation, priority 2018, dated 2025).

The structures appear in SMILES notation. Structures can show the parent of a compound that is named as a salt.

In the assay the target is T1, AR (Homo sapiens, UniProt P10275).
T1 construct: endogenous in cells; host or cells: VCaP cells
T1 sequence (P10275 1-920): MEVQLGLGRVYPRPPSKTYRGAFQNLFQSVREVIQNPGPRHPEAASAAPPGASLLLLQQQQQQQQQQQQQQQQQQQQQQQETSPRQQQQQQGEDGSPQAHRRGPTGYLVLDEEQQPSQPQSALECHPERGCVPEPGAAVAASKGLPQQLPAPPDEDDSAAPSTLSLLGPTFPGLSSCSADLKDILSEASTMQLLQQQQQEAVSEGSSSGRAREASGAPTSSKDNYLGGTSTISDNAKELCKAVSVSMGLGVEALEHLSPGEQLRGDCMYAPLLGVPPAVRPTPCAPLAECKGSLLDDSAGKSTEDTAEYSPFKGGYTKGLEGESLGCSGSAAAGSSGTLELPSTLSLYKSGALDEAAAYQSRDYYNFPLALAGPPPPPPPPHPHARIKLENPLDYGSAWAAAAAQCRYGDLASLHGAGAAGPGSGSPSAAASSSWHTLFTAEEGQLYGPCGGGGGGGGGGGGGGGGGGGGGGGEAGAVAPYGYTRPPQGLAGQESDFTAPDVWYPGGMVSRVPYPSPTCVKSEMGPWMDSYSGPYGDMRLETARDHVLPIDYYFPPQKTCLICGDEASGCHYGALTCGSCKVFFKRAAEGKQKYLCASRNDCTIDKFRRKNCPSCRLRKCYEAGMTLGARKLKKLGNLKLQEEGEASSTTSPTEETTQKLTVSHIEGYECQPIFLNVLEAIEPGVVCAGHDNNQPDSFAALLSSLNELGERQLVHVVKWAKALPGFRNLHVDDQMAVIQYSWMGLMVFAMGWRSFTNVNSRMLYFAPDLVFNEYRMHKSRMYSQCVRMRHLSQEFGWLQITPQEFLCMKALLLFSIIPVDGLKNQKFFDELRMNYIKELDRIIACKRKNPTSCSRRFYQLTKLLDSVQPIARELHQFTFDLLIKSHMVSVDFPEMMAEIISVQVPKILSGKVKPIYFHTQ
The assay can be described thus: VCAP AR Degradation Assay. It is filed as cell-based. As to conditions: for Y (AR degradation efficiency, % of DMSO control): class symbols *; for DC50: class symbols A-C, read-out: DC50. In a few lines:
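24 h, 37 °C, VCaP (DMEM/8% FBS), 10-pt 1:3 dilutions from 5 μM final top, 0.1% DMSO ctrl. Lysis on ice/4 °C 1 h; total AR by sandwich ELISA, normalized to DMSO. 4PL fit → DC50, EC50, Y (min AR level).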

As a reminder, the DC50 is the midpoint of the concentration-degradation curve.

For the compound `CC1(C)C(=O)N(c2ccc(C#N)c(C(F)(F)F)c2)C(=S)N1c1ccc(OCCN2CCN(CC(=O)Nc3cc(Cl)cc(NC4CCC(=O)NC4=O)c3)CC2)c(CCF)c1` (stereo not drawn) [Example 136, N-(3-chloro-5-(2,6-dioxopiperidin-3-ylamino)phenyl)-2-(4-(2-(4-(3-(4-cyano-3-(trifluoromethyl)phenyl)-5,5-dimethyl-4-oxo-2-thioxoimidazolidin-1-yl)-2-(2-fluoroethyl)phenoxy)ethyl)piperazin-1-yl)acetamide], the “Y (AR degradation efficiency, % of DMSO control)” value was “* (0<Y<=25%)” and the DC50 is less than 100 nM.
For `C[C@@H](C(=O)Nc1cccc(NC2CCC(=O)NC2=O)c1)N1CCN(CCOc2ccc(N3C(=S)N(c4ccc(C#N)c(C(F)(F)F)c4)C(=O)C3(C)C)cc2Cl)CC1` (stereo partly drawn) [Example 21, hydrochloride], the “Y (AR degradation efficiency, % of DMSO control)” value is “* (0<Y<=25%)” and the half-maximal degradation concentration (DC50) is less than 100 nM.
Taken in the same sequence, the figures for `CCc1cc(N2C(=S)N(c3ccc(C#N)c(C(F)(F)F)c3)C(=O)C2(C)C)ccc1OCCN1CCN(CC(=O)Nc2cccc(NC3CCC(=O)NC3=O)c2)C2(CC2)C1` (stereo not drawn) [Example 98, 2-(7-(2-(4-(3-(4-cyano-3-(trifluoromethyl)phenyl)-5,5-dimethyl-4-oxo-2-thioxoimidazolidin-1-yl)-2-ethylphenoxy)ethyl)-4,7-diazaspiro[2.5]octan-4-yl)-N-(3-(2,6-dioxopiperidin-3-ylamino)phenyl)acetamide] were “** (25%<Y<=35%)” and less than 100 nM.
The like results for `CCc1cc(N2C(=S)N(c3cnc(C#N)c(C(F)(F)F)c3)C(=O)C2(C)C)ccc1OCCN1CCN(CC(=O)Nc2cc(Cl)cc(NC3CCC(=O)NC3=O)c2)[C@H](C)C1` (stereo partly drawn) [Example 74, N-(3-chloro-5-(2,6-dioxopiperidin-3-ylamino)phenyl)-2-((R)-4-(2-(4-(3-(6-cyano-5-(trifluoromethyl)pyridin-3-yl)-5,5-dimethyl-4-oxo-2-thioxoimidazolidin-1-yl)-2-ethylphenoxy)ethyl)-2-methylpiperazin-1-yl)acetamide] were, in that order, “* (0<Y<=25%)” and less than 100 nM.
For the compound `CCc1cc(N2C(=S)N(c3ccc(C#N)c(C(F)(F)F)c3)C(=O)C2(C)C)ccc1OCCN1CCN(CC(=O)Nc2cc(NC3CCC(=O)NC3=O)ccc2Cl)CC1` (stereo not drawn) [Example 41, hydrochloride], the “Y (AR degradation efficiency, % of DMSO control)” value is “* (0<Y<=25%)” and the half-maximal degradation concentration (DC50) is less than 100 nM.
Taken in the same sequence, the figures for `C[C@@H]1CN(CCOc2ccc(N3C(=S)N(c4ccc(C#N)c(C(F)(F)F)c4)C(=O)C3(C)C)cc2CCF)CCN1CC(=O)Nc1cc(Cl)cc(NC2CCC(=O)NC2=O)c1` (stereo partly drawn) [Example 135, N-(3-chloro-5-(2,6-dioxopiperidin-3-ylamino)phenyl)-2-((R)-4-(2-(4-(3-(4-cyano-3-(trifluoromethyl)phenyl)-5,5-dimethyl-4-oxo-2-thioxoimidazolidin-1-yl)-2-(2-fluoroethyl)phenoxy)ethyl)-2-methylpiperazin-1-yl)acetamide] were “* (0<Y<=25%)” and less than 100 nM.
The like results for `CCc1cc(N2C(=S)N(c3ccc(C#N)c(C(F)(F)F)c3)C(=O)C2(C)C)ccc1OCCN1C[C@H](C)N(CC(=O)Nc2cccc(NC3CCC(=O)NC3=O)c2)C[C@@H]1C` (stereo partly drawn) [Example 125, 2-((2S,5S)-4-(2-(4-(3-(4-cyano-3-(trifluoromethyl)phenyl)-5,5-dimethyl-4-oxo-2-thioxoimidazolidin-1-yl)-2-ethylphenoxy)ethyl)-2,5-dimethylpiperazin-1-yl)-N-(3-(2,6-dioxopiperidin-3-ylamino)phenyl)acetamide] were, in that order, “* (0<Y<=25%)” and 100 to 500 nM.
The like results for `CC1(C)C(=O)N(c2cnc(C#N)c(C(F)(F)F)c2)C(=S)N1c1ccc(OCCN2CCN(CC(=O)Nc3cc(NC4CCC(=O)NC4=O)ccc3F)CC2)c(CCF)c1` (stereo not drawn) [Example 71, 2-(4-(2-(4-(3-(6-cyano-5-(trifluoromethyl)pyridin-3-yl)-5,5-dimethyl-4-oxo-2-thioxoimidazolidin-1-yl)-2-(2-fluoroethyl)phenoxy)ethyl)piperazin-1-yl)-N-(5-(2,6-dioxopiperidin-3-ylamino)-2-fluorophenyl)acetamide] were, in that order, “* (0<Y<=25%)” and less than 100 nM.
In the case of `CCc1cc(N2C(=S)N(c3ccc(C#N)c(C(F)(F)F)c3)C(=O)C2(C)C)ccc1CCCN1CCN(CC(=O)Nc2cccc(NC3CCC(=O)NC3=O)c2)[C@@H](C)C1` (stereo partly drawn) [Example 279, 2-((S)-4-(3-(4-(3-(4-cyano-3-(trifluoromethyl)phenyl)-5,5-dimethyl-4-oxo-2-thioxoimidazolidin-1-yl)-2-ethylphenyl)propyl)-2-methylpiperazin-1-yl)-N-(3-(2,6-dioxopiperidin-3-ylamino)phenyl)acetamide], the “Y (AR degradation efficiency, % of DMSO control)” value is reported as “* (0<Y<=25%)” and the DC50 is less than 100 nM.
The like results for `C[C@@H]1CN(CCOc2ccc(N3C(=S)N(c4cnc(C#N)c(C(F)(F)F)c4)C(=O)C3(C)C)cc2C(C)(F)F)C[C@H](C)N1CC(=O)Nc1cc(C#N)cc(NC2CCC(=O)NC2=O)c1` (stereo partly drawn) [Example 258, N-(3-cyano-5-(2,6-dioxopiperidin-3-ylamino)phenyl)-2-((2S,6R)-4-(2-(4-(3-(6-cyano-5-(trifluoromethyl)pyridin-3-yl)-5,5-dimethyl-4-oxo-2-thioxoimidazolidin-1-yl)-2-(1,1-difluoroethyl)phenoxy)ethyl)-2.6-dimethylpiperazin-1-yl)acetamide] were, in that order, “* (0<Y<=25%)” and less than 100 nM.
Taken in the same sequence, the figures for `CC1(C)C(=O)N(c2cnc(C#N)c(C(F)(F)F)c2)C(=S)N1c1ccc(OCCN2CCN(CC(=O)Nc3cc(Cl)cc(NC4CCC(=O)NC4=O)c3)CC2)cc1` (stereo not drawn) [Example 24, 2-(4-(2-(4-(3-(6-cyano-5-(trifluoromethyl)pyridin-3-yl)-5,5-dimethyl-4-oxo-2-thioxoimidazolidin-1-yl)-2-ethylphenoxy)ethyl)-2,2-dimethylpiperazin-1-yl)-N-(3-((2,6-dioxopiperidin-3-yl)amino)-5-fluorophenyl)acetamide hydrochoride] were “* (0<Y<=25%)” and less than 100 nM.
Turning to `CCc1cc(N2C(=S)N(c3ccc(C#N)c(C(F)(F)F)c3)C(=O)C2(C)C)ccc1OCCN1CCN(CC(=O)Nc2cc(F)cc(NC3CCC(=O)NC3=O)c2)C2(CC2)C1` (stereo not drawn) [Example 109, 2-(7-(2-(4-(3-(4-cyano-3-(trifluoromethyl)phenyl)-5,5-dimethyl-4-oxo-2-thioxoimidazolidin-1-yl)-2-ethylphenoxy)ethyl)-4,7-diazaspiro[2.5]octan-4-yl)-N-(3-(2,6-dioxopiperidin-3-ylamino)-5-fluorophenyl)acetamide], the “Y (AR degradation efficiency, % of DMSO control)” value is given as “* (0<Y<=25%)” and the DC50 is less than 100 nM.
The like results for `C[C@@H]1CN(CCOc2ccc(N3C(=S)N(c4ccc(C#N)c(C(F)(F)F)c4)C(=O)C3(C)C)cc2C2CC2)C[C@H](C)N1CC(=O)Nc1cccc(N[C@@H]2CCC(=O)NC2=O)c1` [Example 288, 2-((2R,6S)-4-(2-(4-(3-(4-cyano-3-(trifluoromethyl)phenyl)-5,5-dimethyl-4-oxo-2-thioxoimidazolidin-1-yl)-2-cyclopropylphenoxy)ethyl)-2,6-dimethylpiperazin-1-yl)-N-(3-((R)-2,6-dioxopiperidin-3-ylamino)phenyl)acetamide] were, in that order, “* (0<Y<=25%)” and less than 100 nM.
The like results for `C[C@@H]1CN(CC(=O)Nc2cccc(NC3CCC(=O)NC3=O)c2)[C@H](C)CN1CCOc1ccc(N2C(=S)N(c3ccc(C#N)c(C(F)(F)F)c3)C(=O)C2(C)C)cc1C1CC1` (stereo partly drawn) [Example 203, 2-((2R,5R)-4-(2-(4-(3-(4-cyano-3-(trifluoromethyl)phenyl)-5,5-dimethyl-4-oxo-2-thioxoimidazolidin-1-yl)-2-cyclopropylphenoxy)ethyl)-2,5-dimethylpiperazin-1-yl)-N-(3-(2,6-dioxopiperidin-3-ylamino)phenyl)acetamide] were, in that order, “* (0<Y<=25%)” and less than 100 nM.
Taken in the same sequence, the figures for `CC1(C)C(=O)N(c2ccc(C#N)c(C(F)(F)F)c2)C(=S)N1c1ccc(OCCN2CCN(CC(=O)Nc3cc(NC4CCC(=O)NC4=O)ccc3F)CC2)c(CC(F)F)c1` (stereo not drawn) [Example 174, 2-(4-(2-(4-(3-(4-cyano-3-(trifluoromethyl)phenyl)-5,5-dimethyl-4-oxo-2-thioxoimidazolidin-1-yl)-2-(2,2-difluoroethyl)phenoxy)ethyl)piperazin-1-yl)-N-(5-(2,6-dioxopiperidin-3-ylamino)-2-fluorophenyl)acetamide] were “* (0<Y<=25%)” and less than 100 nM.
